pEC50: −log10 of the molar value.
Species on record: Rattus norvegicus
Assay: Effective concentration for their ability to release growth hormone in the rat pituitary cell assay
Type: functional, organism-based, Pituitary gland cell
Settings: Rattus norvegicus, Pituitary gland cell

Question: How did the pEC50 turn out when CC(C)(N)C(=O)N[C@H](COCc1ccccc1)C(=O)N1CCC2(CC1)CN(S(C)(=O)=O)c1ccccc12 [IBUTAMOREN] was run?
Answer: Its pEC50 is 9.00.

Question: CC(C)(N)C(=O)N[C@H](Cc1c[nH]c2ccccc12)C(=O)N1C2CCC1CC(c1ccccc1)C2 (mixture of isomers) was tested. Which pEC50 did it give?
Answer: Its pEC50 is 7.20.

Question: Cc1ccccc1C1CC2CCC(C1)N2C(=O)[C@@H](Cc1c[nH]c2ccccc12)NC(=O)C(C)(C)N (mixture of isomers) was tested. Which pEC50 did it give?
Answer: The pEC50 was 7.48.

Question: With CCNC(=O)c1ccccc1C1CC2CCC(C1)N2C(=O)[C@@H](CCCc1ccccc1)NC(=O)C(C)(C)N (mixture of isomers) as the compound, how does the pEC50 read?
Answer: The pEC50 was 8.89.

Question: CC(C)(N)C(=O)N[C@H](CCCc1ccccc1)C(=O)N1C2CCC1CC(c1ccccc1)C2 (mixture of isomers) was tested. Which pEC50 did it give?
Answer: The pEC50 was 7.62.

Question: How did the pEC50 turn out when Cc1ccccc1C1CC2CCC(C1)N2C(=O)[C@@H](CCCc1ccccc1)NC(=O)C(C)(C)N (mixture of isomers) was run?
Answer: Its pEC50 is 7.11.

Same assay, conditions: pituitary gland cell

Question: With CC(C)(N)C(=O)N[C@H](CCCc1ccccc1)C(=O)N1C2CCC1CC(c1ccccc1C(=O)O)C2 (stereo in doubt; 26g) as the compound, how does the pEC50 read?
Answer: The pEC50 was 8.02.

Question: With CCOC(=O)c1ccccc1C1CC2CCC(C1)N2C(=O)[C@@H](CCCc1ccccc1)NC(=O)C(C)(C)N (mixture of isomers) as the compound, how does the pEC50 read?
Answer: Its pEC50 is 7.05.

Question: CCOC(=O)c1ccccc1C1CC2CCC(C1)N2C(=O)[C@@H](CCCc1ccccc1)NC(=O)C(C)(C)N (stereo in doubt; 26h) was tested. Which pEC50 did it give?
Answer: Its pEC50 is 6.49.

Question: How did the pEC50 turn out when CCOC(=O)c1ccccc1C1CC2CCC(C1)N2C(=O)[C@@H](CCCc1ccccc1)NC(=O)C(C)(C)N (stereo in doubt; 26f) was run?
Answer: The pEC50 was 7.32.

Question: CC(C)(N)C(=O)N[C@H](CCCc1ccccc1)C(=O)N1C2CCC1CC(c1ccccc1C(=O)O)C2 (stereo in doubt; 26i) was tested. Which pEC50 did it give?
Answer: The pEC50 was < 6.30.

— ChEMBL document CHEMBL1136400, “Substituted bridged phenyl piperidines: orally active growth hormone secretagogues” (Bioorg Med Chem Lett, 2003)
